# Source: patent publication US11596632B2, “JAK1 pathway inhibitors for the treatment of gastrointestinal disease” (Incyte Corporation, priority 2018, dated 2023)
# Entries after “also recorded” stand apart in the source; their conditions may differ.
# How the values were obtained:
# [1] = target: human JAK1 (a.a. 837-1142) (Homo sapiens (Human), UniProt P23458); test: In vitro JAK kinase assay (HTRF), JAK1; format: biochemical; details: 1 mM ATP
# Procedure: The catalytic activity of JAK1, JAK2 or JAK3 was assayed by measuring the phosphorylation of a biotinylated peptide. The phosphorylated peptide was detected by homogenous time resolved fluorescence (HTRF). […] Reactions are carried out at room temperature for 1 hour and then stopped with 20 μL 45 mM EDTA, 300 nM SA-APC, 6 nM Eu-Py20 in assay buffer (Perkin Elmer, Boston, Mass.). Binding to the Europium labeled antibody takes place for 40 minutes and HTRF signal was measured on a Fusion plate reader (Perkin Elmer, Boston, Mass.).
# [2] = Fecal concentration and excretion after oral sustained release dose; format: in vivo, human
# Procedure: The method used for analyzing Compound 1 in human feces is a qualified method. The human fecal samples are collected in 1:1 homogenate at the clinical site [1 part of water (mL): 1 part of faces(g)]. Prior to sample analysis, additional water is added to the sample homogenate to achieve the final ratio of feces to water at 1:19 as calibration standard and QC samples. The final homogenates are processed and analyzed with calibration standards and QC samples. For human homogenate analysis, briefly, 100 μL of the feces homogenate (blanks, QC and study samples) is placed in a test tube. After an aliquot of 20 μL of internal standard is added and mixed, an aliquot of 200 μL of 0.1 M NaHCO3 is added and vortexed. Then 2 mL of MtBE is added and the samples are vortexed. After centrifugation, MtBE layer is transferred to a clean test tube. The samples were then dried under nitrogen at approximately 40° C. An aliquot of 1 mL of reconstitution solution (acetonitrile:water, 50:50, v/v) is then added to each sample and vortexed. Then 10 μL of the sample was diluted with 3 mL reconstitution solution in a clean test tube. The sample is transferred to an autosampler vial and 10 μL is injected into an LC-MS/MS for analysis. The LC-MS/MS analysis is carried out with an AB Sciex API 4000 or API 4000 QTrap mass spectrometer coupled with an HPLC pump and an autosampler. The chromatographic separation is achieved on a Agilent Eclipse Plus C8 50×4.6 mm, 5 μm HPLC column, with gradient elution. The mass spectrometer is operated in positive ESI mode. MRM transition is m/z 554.3→186.2 for Compound 1 and m/z 558.4→190.2 for the internal standard. Peak-area integrations are performed using the Analyst software and concentrations are calculated in Watson LIMS. Concentrations of human feces homogenates are calculated using 8 concentration levels ranging from 1 μg/g to 300 μg/g (1.8 μM to 542 μM) with weighted linear regression, according to the following formula: y=ax+b(weighting factor=1/x^2)
# where x=Compound 1 concentration in μg/g in human feces homogenates, y=Peak-area ratio, a=Slope, and b=Intercept.
# Methods: Compound 1 concentrations in plasma and feces (colonic surrogate) were determined following a single sustained release 25 mg oral dose (see, e.g., Example B, 25 mg SR composition). Compound 1 concentrations in plasma following a single 100 mg dose were also determined in a separate study (see, e.g., Example C for measuring concentrations of Compound 1 in plasma). Ex vivo study: Colon tissue samples from healthy and UC subjects (2/group) were mounted on a vertical Ussing diffusion chamber. [^14C]Compound 1 was applied to the apical side of the chamber at 100 and 1000 nM and incubated for 1 h. Samples were collected from the donor and receiver sides for determination of Compound 1 concentration. The colonic tissue was snap frozen for quantitative autoradiography.
# [3] = tested on: patients with plaque psoriasis; test: Clinical study in patients with plaque psoriasis (sPGA, safety); format: in vivo, human
# Procedure: (§1) The systemic effects of Compound 1 have been studied in the auto-immune diseases RA and Ps. Inhibition of phosphorylation of STAT3 following stimulation with IL-6, a marker of AK1 inhibition, and TPO, a marker of JAK2 inhibition was measured in both studies. In patients with Ps doses of 100 mg QD, 200 mg QD, 200 mg BID, and 600 mg QD were studied.
# [4] = tested on: IL-6-induced STAT3 phosphorylation; test: Ex vivo IL-6-induced STAT3 phosphorylation in dosed patients (marker of JAK1 inhibition); parameters: species or system human; details: 100 mg QD to 600 mg QD
# Procedure: To assess the inhibitory activity of Compound 1 in serum-rich media, e.g., plasma or whole blood, the assay is conducted using whole blood; briefly, the whole blood sample is stimulated with IL-6 and levels of phosphorylated STAT3 are determined. This assay can be conducted either in vitro (human blood samples are spiked with Compound 1) or ex vivo (whole blood samples collected from human subjects dosed with Compound 1).
# as §1
# RA patients = test: Clinical study in rheumatoid arthritis patients (ACR responses, ANC); format: in vivo, human
# Procedure: However, the greatest inhibition appeared to be observed following 200 mg BID dosing. Also noteworthy is that the 100 mg QD dose had less TPO induced pSTAT3 inhibition than placebo.
# [5] = tested on: TNBS-induced colitis in BALB/c mice; test: TNBS-induced colitis model in mice; format: in vivo, mouse
# Source text: Preclinical models of IBD were established in BALB/c mice by intracolonic injection of 2,4,6-trinitrobenzene sulfonic acid (TNBS) or 4-ethoxymethylene-2-phenyl-2-oxazolin-5-one (oxazolone) to trigger an immune response, as described below. Body weight, stool consistency and fecal blood were scored. Additional readouts included colon weight to length ratio and histological evaluation. Blood was collected for pharmacokinetic analysis.
# Male BALB/c mice were purchased (Charles River Laboratories) and distal colitis was induced by intracolonic instillation of TNBS (2,4,6-trinitrobenzenesulfonic acid solution, 1 mg in 0.1 mL 50% ethanol). Compound 1 treatment was administered at 30 mg/kg by oral gavage (PO) or 3 mg/kg by intracolonic injection (IC) twice daily (BID). Diarrhea was quantified on a 0-3 rating scale, (0=normal; 1=soft but still formed; 2=very soft; 3=diarrhea) on days 3 to 5 post TNBS sensitization.
# human JAK1 (a.a. 837-1142), sequence (P23458 837-1142): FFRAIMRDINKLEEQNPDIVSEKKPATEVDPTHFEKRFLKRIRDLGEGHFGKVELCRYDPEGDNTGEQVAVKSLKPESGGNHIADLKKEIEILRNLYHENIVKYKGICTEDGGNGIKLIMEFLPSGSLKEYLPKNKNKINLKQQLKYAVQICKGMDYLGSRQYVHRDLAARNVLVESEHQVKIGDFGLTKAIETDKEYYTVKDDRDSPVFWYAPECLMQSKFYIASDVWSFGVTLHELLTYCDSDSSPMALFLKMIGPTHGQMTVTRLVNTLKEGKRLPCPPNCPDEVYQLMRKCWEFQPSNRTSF
smiles,measurement,setting,value
"N#CCC1(n2cc(-c3ncnc4[nH]ccc34)cn2)CN(C2CCN(C(=O)c3ccnc(C(F)(F)F)c3F)CC2)C1 [Compound 1, {1-{1-[3-Fluoro-2-(trifluoromethyl)isonicotinoyl]piperidin-4-yl}-3-[4-(7H-pyrrolo[2,3-d]pyrimidin-4-yl)-1H-pyrazol-1-yl]azetidin-3-yl}acetonitrile]",IC50,[1],< 10 nM
same,administered dose excreted intact as parent compound in the feces,"[2]; humans, oral",~30%
same,"Maximal fecal concentration, geometric mean","[2]; single 25 mg SR dose, feces 0-24 hours",85.5 nM
same,"Maximal fecal concentration, Mean","[2]; single 25 mg SR dose, feces 0-24 hours, SD 41.4 nM",93.4 nM
same,patients with maximum fecal concentrations exceeding the in vitro IC50 for JAK1 inhibition (58 nM),[2]; single 25 mg dose,eight of twelve
same,dose eliminated as unchanged Compound 1 in the feces,[2]; sustained release formulation,27.1%
same,"mean change from baseline sPGA at Day 28, dose relation","[3]; 100 mg QD, 200 mg QD, 200 mg BID, 600 mg QD",dose-dependent response
same,"Day 28 sPGA score, Mean (SD)","[3]; 100 mg QD, n=9",2.6 (1.01)
same,"Day 28 sPGA score, Median","[3]; 100 mg QD, n=9",2.0
same,"Percent change from baseline in sPGA score at Day 28, Median","[3]; 100 mg QD, n=9",−33.3%
same,"Percent change from baseline in sPGA score at Day 28, Mean (SD)","[3]; 100 mg QD, n=9, p=0.270 vs placebo",−22.2 (23.57) Percent
same,"change from baseline in sPGA, clinical meaning",[3]; 200 mg BID (p=0.053) and 600 mg QD (p=0.003),clinically meaningful changes from baseline
same,"Day 28 sPGA score, Mean (SD)","[3]; 200 mg BID, n=9",2.0 (1.00)
same,"Day 28 sPGA score, Median","[3]; 200 mg BID, n=9",2.0
same,"Percent change from baseline in sPGA score at Day 28, Median","[3]; 200 mg BID, n=9",−33.3%
same,"Percent change from baseline in sPGA score at Day 28, Mean (SD)","[3]; 200 mg BID, n=9, p=0.053 vs placebo",−35.2 (33.79) Percent
same,"Day 28 sPGA score, Mean (SD)","[3]; 200 mg QD, n=9",2.3 (1.00)
same,"Day 28 sPGA score, Median","[3]; 200 mg QD, n=9",2.0
same,"Percent change from baseline in sPGA score at Day 28, Median","[3]; 200 mg QD, n=9",−33.3%
same,"Percent change from baseline in sPGA score at Day 28, Mean (SD)","[3]; 200 mg QD, n=9, p=0.118 vs placebo",−29.4 (31.14) Percent
same,"Day 28 sPGA score, Mean (SD)","[3]; 600 mg QD, n=11",1.8 (0.98)
same,"Day 28 sPGA score, Median","[3]; 600 mg QD, n=11",2.0
same,"Percent change from baseline in sPGA score at Day 28, Median","[3]; 600 mg QD, n=11",−33.3%
same,"Percent change from baseline in sPGA score at Day 28, Mean (SD)","[3]; 600 mg QD, n=11, p=0.003 vs placebo",−42.4 (26.21) Percent
same,neutropenia,[3]; psoriasis patients,No neutropenia was noted
same,inhibition of IL-6 induced pSTAT3,"[4]; RA patients, Cycle 1 Day 15",general trend of dose-dependent inhibition of IL-6 induced pSTAT3
same,inhibition of pSTAT3 in response to IL-6 stimulation ex vivo,[4]; psoriasis patients,concentration dependent inhibition of pSTAT3
same,"ACR20, ACR50, and ACR70 responses versus placebo","RA patients; 600 mg QD, Day 84 visit","statistically significant differences in ACR20, ACR50, and ACR70 responses"
same,decreased ANC,RA patients; RA patients,several cases of decreased ANC but no dose-dependent trend was observed
same,fecal blood score,[5]; 3 mg/kg IC BID,significant (p<0.05) decrease in fecal blood score
same,total colonic macroscopic damage,[5]; 3 mg/kg IC BID,ameliorated total colonic macroscopic damage
same,disease severity / disease recovery,[5]; 3 mg/kg intracolonic BID,significantly reduced disease severity; also recorded: highly efficacious in enhancing disease recovery; also recorded: more rapidly induced recovery; also recorded: highly efficacious in TNBS-induced colitis
same,disease severity / disease score recovery,"[5]; 30 mg/kg PO BID, vs vehicle",significantly reduced disease severity; also recorded: accelerated disease score recovery
same,stool consistency,"[5]; 30 mg/kg PO or 3 mg/kg intracolonic, twice daily, vs control",significantly (p<0.05) improved stool consistency
